The structures appear in SMILES notation. Like-named read-outs stand apart in the source and are kept apart here. Where only a bound is given, the exact number is not on record here.

The source of these data is US20130030049A1, “METHODS OF TREATING DERMATOLOGICAL DISORDERS OR CONDITIONS” (Dermira (Canada), Inc., priority 2006, published 2013).

In data set [1] the test system is SZ95 sebocytes. Kind of data set: Inhibition of lipid synthesis in AA-stimulated SZ95 sebocytes (Nile Red staining). It is filed as cell-based, human. As for the experimental part: (§1) The immortalized human sebocyte cell line, SZ95, was maintained in culture as described in Zouboulis, C. C. et al., J. Invest. Dermatol. (1999), Vol. 113, pp. 1011-1020. Lipid synthesis was stimulated by treating SZ95 cells with arachidonic acid (AA). For measurement of lipid production and lipid inhibition studies, test compounds were dissolved in dimethylsulfoxide (DMSO) and added at the desired concentration in 96-well microtiter plates. The cells were then cultured for up to 72 hours before the plates were washed 3 times with PBS and a final volume of 200 μL PBS/well was added. To stain cell neutral lipids, 5 μL of Nile Red solution (0.2 mg/mL dissolved in DMSO) was added to each well and incubated for a minimum of 60 minutes. Plate fluorescence was then quantified using a fluorometric plate reader (excitation wavelength: 490 nm; emission wavelength: 590 nm). Inhibition of lipid levels by the test compound was expressed as the % reduction of the fluorescence of AA-stimulated cells in the presence of the test compound relative to the values obtained for the unstimulated control cells. Cell viability was measured by utilizing the conversion of a tetrazolium reagent (MTS) to a colored-formazan product by live cells. For these assays, the test compound was dissolved in dimethylsulfoxide (DMSO) and added at the desired concentration to cells seeded into 96-well plates. The cells were cultured for 48 hours in the presence of the test compound before the plates were washed 3 times with PBS. A final volume of 100 μL of culture medium per well was added. Twenty μL of MTS solution (0.2 mg/mL in sterile PBS) was added to each well and incubated for a minimum of 60 minutes until the desired optical density was reached. The color development of the wells was measured using a plate reader at an absorbance of […]. Effect on cell viability by the test compound was expressed as the % reduction of the absorbance for AA-stimulated cells in the presence of the test compound relative to the values obtained for the untreated control cells.

In another data set the test system is TNF-α. Kind of data set: Supernatant TNF-α level of activated PBMC (flow cytometry-based). The settings on record: Homo sapiens, 48 h, PBMC stimulated with IFN-γ plus LPS, 10% FBS, read-out: TNF-α supernatant level IC50 (estimated). The class given is cell-based. As for the experimental part:
(§2) As described herein, the inhibitory effect of TOFA on fatty acid synthesis is well known. However, the potential influence of TOFA on cellular production of inflammatory mediators or immune cell proliferation is unreported. To address this question, PBMC were isolated from different donors by density gradient centrifugation. Different amounts of TOFA were added to PBMC cultures in the presence of two different stimuli sets. One activating stimulus was phytohemagglutinin (PHA), a plant-derived mitogen that stimulates proliferation and cytokine synthesis by T lymphocytes. These cell preparations were also activated using a combination of interferon-γ (IFN-γ) and lipopolysaccharide (LPS) to stimulate cytokine production by the monocyte fraction within PBMC preparations. Following a 48 hour culture period, cell supernatants were obtained for simultaneous determination of cytokine levels using a flow cytometry-based quantification method. […] Cell viability was assessed using a colorimetric assay based on the conversion of 3-(4,5-dimethylthiazol-2-yl)-5-(3-carboxymethoxyphenyl)-2-(4-sulfophenyl)-2H-tetrazolium, inner salt (MTS) into a soluble formazan product by mitochondrial dehydrogenase of viable cells. Cell proliferation was determined by adding ^3H-thymidine to the cultures and determining its level of incorporation into DNA using scintillation counting.

A further data set has as its system IL-1β. The data set can be described thus: Supernatant IL-1β level of activated PBMC (flow cytometry-based). The class given is cell-based. Conditions: Homo sapiens; PBMC stimulated with IFN-γ plus LPS, 10% FBS, 48 hours; read-out: IL-1β supernatant level IC50 (estimated). As for the experimental part:
as §2

The next data set deals with IL-6. Kind of data set: Supernatant IL-6 level of activated PBMC (flow cytometry-based). It is filed as cell-based. The settings on record: Homo sapiens; PBMC stimulated with IFN-γ plus LPS, 10% FBS, 48 hours; read-out: IL-6 supernatant level IC50 (estimated). As for the experimental part:
as §2

For the next data set, the system named is 3T3-L1 cells. The data set can be described thus: 3T3-L1 adipocyte differentiation and lipid accumulation (Oil Red O). It is filed as cell-based. Conditions: mouse 3T3-L1 adipocytes, FIGS. 8-10. As for the experimental part:
Mouse 3T3-L1 preadipocytes (American Type Culture Collection) were passaged and maintained in Dulbecco's modified Eagles Medium (DMEM) supplemented with 10% fetal calf serum (FCS), 1 mM sodium pyruvate, penicillin (100 U/ml)/streptomycin (100 μg/ml) and 4 mM Glutamax (Gibco/Life Technologies). To initiate adipocyte differentiation, 3T3-L1 cells were plated at confluency into culture plates or dishes and grown in supplemented DMEM for two days post-confluency. Initiation medium consisted of DMEM with 0.5 mM 3-isobutyl-1-methylxanthine, 1 μM dexamethasone and human insulin at 10 μg/ml. Progression medium contained insulin (10 μg/ml) which replaced the initiation medium after 48-72 hours. Cellular lipid was imaged by Oil Red O staining as described in Example 2 for LNCaP cells.

Data set [2] concerns SZ95 sebocytes. The data set can be described thus: SZ95 sebocyte viability (MTS assay). It is filed as cell-based, human. Conditions: AA-stimulated SZ95 cells, FIG. 2B. As for the experimental part: as §1, with “To stain cell neutral lipids, 5 μL of Nile Red solution (0.2 mg/mL dissolved in DMSO) was added to each well and incubated for a minimum of 60 minutes.” left out, “For these assays, the test compound was dissolved in dimethylsulfoxide (DMSO) and added at the desired concentration to cells seeded into 96-well plates. The cells were cultured for 48 hours in the presence of the test compound before the plates were washed 3 times with PBS. A final volume of 100 μL of culture medium per well was added. Twenty μL of MTS solution (0.2 mg/mL in sterile PBS) was added to each well and incubated for a minimum of 60 minutes until the desired optical density was reached.” left out
A general note: Tetrazolium assays rely on reduction of a dye to a coloured formazan, in cell work by metabolically active cells.

The next data set relates to IL-8. Kind of data set: Supernatant IL-8 level of activated PBMC (flow cytometry-based). It is filed as cell-based. Conditions: Homo sapiens; PBMC stimulated with IFN-γ plus LPS, 10% FBS, 48 hours; read-out: IL-8 supernatant level IC50 (estimated). How it is done: as §2
A further data set deals with PBMC. Kind of data set: Viability of activated PBMC (MTS assay). It is filed as cell-based, human. How it is done:
as §2

Another data set has as its system LNCaP cells. Kind of data set: Lipid accumulation in DHT-stimulated LNCaP cells (Nile Red flow cytometry, Oil Red O). The class given is cell-based, human. How it is done: The human prostate LNCaP adenocarcinoma cell line was obtained from American Type Culture Collection. Cells were maintained in RPMI 1640 medium containing 10% fetal calf serum (FCS), 4 mM Glutamax, 1 mM sodium pyruvate, 1 mM HEPES, penicillin (100 U/mL) and streptomycin (100 μg/mL). For experiments, approximately 10,000 cells/well were plated in 6-well tissue culture plates in RPMI 1640 10% FBS for 72 hours. To minimize potential serum androgen effects, medium containing 5% charcoal/dextran-stripped FCS was added for 72 hours. Lipid synthesis was then stimulated by addition of the androgen dihydrotestosterone (DHT) at 50 nM. TOFA was solubilized in DMSO and added at various concentrations in RPMI 1640 containing 5% charcoal/dextran-treated. Cells were incubated in the presence of these factors for 96 hours at 37° C. Lipid accumulation was subsequently quantified by Nile Red staining and flow cytometric analysis. The flow cytometer laser excitation was set at 488 nm and Nile Red fluorescence collected through a 585 nm band pass filter. A total of 10,000 events were collected per sample. […] Cell Nile Red fluorescence was also visualized through a fluorescence microscope.
Cellular lipid expression was also determined using Oil Red O staining. […] Lipid accumulation was visualized by fluorescence microscopy.
(In general: Flow cytometry measures light scatter and fluorescence of single cells or particles in a stream.)

The conditions of data set [3]: oral, moderate to severe acne patients, at 12 weeks; cited from earlier work.

Consider `CC1=C(/C=C/C(C)=C/C=C/C(C)=C\C(=O)O)C(C)(C)CCC1` [13-cis retinoic acid, 13-cis-retinoic acid, reference compound], for which the IC50 (as a rule, the concentration needed to halve the response being measured) with SZ95 sebocytes [1] (SZ95 cells, short term cultures, read-out: IC50 against lipid synthesis) was around 40 µM.
With `CCCCCCCCCCCCCCOc1ccc(C(=O)O)o1` [TOFA, 5-(tetradecyloxy)-2-furancarboxylic acid], the IC50 was above 90 µM with TNF-α; around 3 µM in the data set on SZ95 sebocytes [1] (Homo sapiens, AA-stimulated SZ95 cells, FIG. 2A, read-out: estimated IC50 upon lipid synthesis (nile red fluorescence intensity)); above 90 µM in the data set on IL-1β; above 90 µM in the data set with IL-6; above 90 µM with IL-8; above 90 µM in the data set on PBMC (Homo sapiens, PBMC stimulated with PHA (2 μg/mL), 10% FBS, 48 hours, one row per experiment (donor)). In addition, in the data set on SZ95 sebocytes [1] (AA-stimulated SZ95 cells, FIG. 1), the “inhibition of lipid synthesis observed by fluorescence microscopy” value is “dose-dependent inhibition of lipid synthesis”. For the same compound, the “effect on cellular differentiation and lipid accumulation” value in the data set on 3T3-L1 cells is “dose-dependent effects on cellular differentiation and lipid accumulation”. The “TOFA concentration with viability loss” value in the data set with SZ95 sebocytes [2] is listed as “greater than 50 μM”. Besides, in the data set with PBMC (PBMC stimulated with PHA or IFN-γ plus LPS), the “effect on the viability of PBMC” value is given as “no effect on the viability”. In the data set with LNCaP cells (FIG. 11), the “lipid levels by Oil Red O staining and fluorescence microscopy” value is on record as “dose dependent reduction in lipid levels”. The “reduction of lipid levels (flow cytometry/fluorescence)” value with LNCaP cells (TOFA at 25 μM, FIG. 12) is given as above 50%.
With `CC(c1cc2ccccc2s1)N(O)C(N)=O` (stereo not shown) [Zileuton], in [3], the “reduction in inflammatory lesions” value is recorded as 71% and the “reduction of sebum lipids” value is given as 65%.
With `CCCCC/C=C\C/C=C\C/C=C\C/C=C\CCCC(=O)O` [arachidonic acid (AA), arachidonic acid, reference compound], the “increase of SZ95 sebocyte lipid levels” value in the data set on SZ95 sebocytes [1] (96-well microtiter plate format) is “approximately 5 fold”.
